Laboratory results taken from patent US20250177366A1, “COMPOSITIONS AND METHODS FOR ALLEVIATING PAIN AND REDUCING ADVERSIVENESS OF STIMULI” (UNIVERSITY OF WASHINGTON, priority 2021, published 2025).

Columns and labels:
Type in all cases: in vivo, Zebrafish (Danio rerio)
[1] = tested on: larval zebrafish; test: AITC aversion assay (chemical attraction/aversion, AITC-infused agarose); conditions: for effect of co-applied drug on AS1-induced attraction to AITC / AITC aversion, drug alone: AITC 100 mM in agarose; for effect of co-applied drug on AS1-induced attraction to AITC: drug + AS1 (5 μM; 2.5 μM with SKF and sumanirole); for AITC aversion, drug alone: without AS1
Text: Whether the effects of AS1 extended beyond noxious temperature sensation or could also impact other somatosensory modalities was next explored. To accomplish this, a chemical attraction/aversion assay where a thin layer of agarose was deposited along the edges of a square arena (Jordi et al., Sci. Adv. 2018; 4:1-15) were adapted. Along one wall, the agarose contained the chemical to be tested, while the other three walls were lined with control agarose. It was anticipated that a chemical gradient would be established as chemical diffused from the agarose into the surrounding water. Larvae were pre-incubated in either vehicle or AS1 and then added to the arena and the distance of each larva from the chemical-infused agarose was measured. In control experiments where all four walls of the arena were lined with agarose only, AS1 and vehicle-treated larvae were dispersed evenly throughout the arena (FIG. 3). […] When the nociceptive chemical AITC (100 mM, 10,000× maximal effective dose) was tested, vehicle-treated larvae swam away from the AITC source.
(§1) Chemical attraction/aversion assays. The agarose attraction/aversion assay was adapted from previously described experiments (Jordi et al., Sci. Adv. 2018; 4:1-15). For the AITC aversion assay, AITC and DMSO were added to molten 0.8% agarose to achieve a final concentration of 100 mM AITC and 2% DMSO. For the AS1 attraction/aversion assay, AS1 and DMSO were added to 0.8% molten agar to achieve final concentrations of 50 mM and 2%, respectively. To construct the test chambers, the lids of 10×10 cm square petri dishes (insert cat #and company) were lined on four sides with either the test (chemical-containing) or plain agarose (300 μL per side) and allowed to solidify. For all experiments, 30-40 randomly selected 6 dpf zebrafish were caught with a 10 mL pipette pump (Bel-Air Products, cat #: 13683C) equipped with a glass wide-bored Pasteur pipet (Fisher Scientific, cat #: 22-037-540) and deposited into a standard 10 cm diameter petri dish (Fisher Scientific, cat #: 07-202-031). As much E2 media as possible was carefully removed using the same pipette. For single incubation experiments, 30 mL of 1× solutions of the control or test chemical was added to each petri dish, and fish were incubated for 10 minutes at 28.5° C. For double incubation experiments, 15 mL of 1× solutions containing control (DMSO) or test chemicals was added to the larvae-containing petri dish. Following a ten minute incubation, 15 mL of the second incubation solution (1× control or test chemical +/−2× AS1) was added to the petri dish, and the fish were incubated for a second ten minute block. The final concentration of DMSO in all solutions was 1%. In all double-incubation experiments, the final concentration of AS1 was 5 μM unless otherwise noted. After completion of the last incubation period, the contents of each petri dish were poured into separate agarose-lined square dishes. Swimming behavior was immediately recorded for 20 minutes using the same high-definition camcorder in the thermal preference assays.

[2] = tested on: larval zebrafish; test: Chemical attraction/aversion assay with the test chemical itself as source (inherent attractiveness); conditions: 2 mL in trough of 3D-printed arena; SKF 25 μM; AS1 10 μM-1 mM
Text: To confirm that AS1 itself was not attractive, the chemical attraction/aversion assay was used. […] Since the assay was modified to accommodate the inability to dissolve SKF into agarose at high concentrations (see Materials and Methods), the inherent attractiveness of AS1 was re-tested using this new format.
as §1, with “Following a ten minute incubation, 15 mL of the second incubation solution (1× control or test chemical +/−2× AS1) was added to the petri dish, and the fish were incubated for a second ten minute block. The final concentration of DMSO in all solutions was 1%. In all double-incubation experiments, the final concentration of AS1 was 5 μM unless otherwise noted. After completion of the last incubation period, the contents of each petri dish were poured into separate agarose-lined square dishes.” left out
For the SKF attraction/aversion assay, custom 10 cm×10 cm plates using clear resin (Formlabs, cat #: RS-F2-GPCL-04) and a Form 3+3D printer (Formlabs, cat #: PKG-F3-WSVC-BASIC) were designed. […] Swimming behavior was then recorded for 20 minutes. […]

[3] = tested on: larval zebrafish; test: Light/dark preference (phototaxis) assay; conditions: for effect of co-applied drug on AS1-induced preference for the dark: drug + 2.5 μM AS1; for light/dark preference, drug alone: without AS1
Method: Following this, whether the effects of AS1 were restricted to somatosensation or were generalizable to other aversive stimuli were tested. Thus, the effects of AS1 on light/dark preference were tested. Zebrafish larvae prefer white light environments to dark environments and this preference is inhibited by anxiolytics, analagous to studies in rodents (Lau et al., Proc. Natl. Acad. Sci. U.S.A 2011; 108:2581-2586; Burgess et al., Curr. Biol. 2010; 20:381-386). To measure light/dark preference, larval zebrafish were placed in a square arena and given the choice between a bright white light and total darkness, and the number of larvae on each side was quantified at 30 second intervals. Five 4-minute trials were performed, where the light and dark sides of the arena were reversed between trials. […] Given the precise control over stimulus luminosity in this assay, the effects of altering the intensity of the dark stimulus were explored next. In this gradient version of the phototaxis assay, larval zebrafish were given the choice between a bright white environment and one of six potential shades of darkness, ranging from light gray to solid black. […] This implies that the valence of non-painful noxious stimuli is precisely encoded in an intensity-dependent manner, and that AS1 exerts its effects in proportion to the intensity of the stimulus.
Light/dark preference (phototaxis) assay. In the light/dark preference assay, randomly-selected 6 dpf larval zebrafish (N of 30 to 40) were carefully pipetted onto a 10 cm square petri dish using a 10 mL pipette pump equipped with a glass wide-bored Pasteur pipet. As much E2 media as possible was carefully removed using the same pipet. For single incubation experiments, 30 mL of 1× solutions of the control or test chemical was added to each petri dish, and fish were incubated for 10 minutes at 28.5° C. For double incubation experiments, 15 mL of 1× solutions containing control (DMSO) or test chemicals was added to the larvae-containing petri dish. Following a ten-minute incubation period, 15 mL of the second incubation solution (1× control or test chemical +/−2× AS1) was added to the petri dish, and the fish were incubated for a second ten minute block. The final concentration of DMSO in all solutions was 1%. In all double-incubation experiments, the final concentration of AS1 was 2.5 μM. These petri dishes were then positioned over a horizontally-oriented computer monitor displaying a PowerPoint presentation. For standard light/dark preference assays, a blank white slide was initially presented for one minute, after which the presentation would automatically advance to a slide in which half of the display was black. The petri dish with larvae was positioned such that exactly half was directly over the dark side, and the other half was directly over the light side. After four minutes, the presentation automatically advanced to a slide in which the black and white halves switched places. A total of five four-minute trials, with the dark/light halves automatically switching position between trials, were recorded. For the gradient phototaxis assay, experiments were performed identically, except that the “dark” half of the powerpoint presentation was one of six shades of gray.
In all experiments, an initial still frame of video was taken during the minute where the blank slide was presented in order to quantify the total number of fish in the experiment. Following this, still frames were taken at 30 second intervals for each trial ([…]), and the number of fish present in the light half of the arena were counted. To generate the graphs that looked at swimming patterns over time in a trial (e.g., FIG. 3D), the average percentage of fish in the light at each time point (T=0, T=30, etc.) was calculated across all five trials. […]

[4] = tested on: larval zebrafish; test: Thermal preference assay (28.5° C. vs 37.5° C.), non-sensitized; conditions: for effect of co-applied drug on swimming velocity of AS1-treated fish: 28.5 and 37.5° C. zones; for effect of co-applied drug on swimming velocity of AS1-treated fish / effect of co-applied drug on AS1-induced attraction to noxious heat: drug + 5 μM AS1; for effect of co-applied drug on AS1-induced attraction to noxious heat / temperature choice, drug alone: 28.5° C. vs 37.5° C.; for temperature choice, drug alone: without AS1
Method: Thermal preference assay. […] Once an entire plate was loaded with fish, the appropriate incubation solution was added. […] Following incubation in all experiments, the choice testing plate was transported to a dual solid-state heat/cool plate (AHP-1200° C. P; Teca) and centered such that half of each arena was positioned over each side of the heat/cool plate. […] Locomotor behavior was recorded using a Canon high-definition video camcorder suspended at a fixed position above the choice testing plate. Each trial was four minutes in duration.
For single-incubation assays (e.g. testing single chemicals), larval zebrafish were caught in 100 μL E2 media and 100 μL of the control (2% DMSO) or test chemical at 2× concentration was added to each well to achieve the final desired concentration. […] The final DMSO concentration in all solutions was 1%.

Row | Compound | effect of co-applied drug on AS1-induced attraction to AITC [1] | AITC aversion, drug alone [1] | inherent attractiveness of chemical deposited into trough [2] | effect of co-applied drug on AS1-induced preference for the dark [3] | light/dark preference, drug alone [3] | effect of co-applied drug on swimming velocity of AS1-treated fish [4] | effect of co-applied drug on AS1-induced attraction to noxious heat [4] | temperature choice, drug alone [4] | concentrations that partially attenuate AS1-induced attraction to AITC ([1]; SCH 1-20 μM + 5 μM AS1) | concentration abolishing AS1-induced preference for the dark entirely ([3]; SCH 10-20 μM + 2.5 μM AS1)
1 | C=CCN1CCc2c(cc(O)c(O)c2Cl)C(c2ccccc2)C1 (centres unmarked) [SKF82958] | did block AS1-induced preference to this chemical irritant | had little effect upon aversion to AITC | mildly attractive | reversed dark preference in fish that were treated with AS1 | slight decrease in the proportion of fish found in the light by itself | reduced the swimming velocity of AS1-treated zebrafish in the 28.5 °C zone | significantly attenuated the amount of time AS1-treated fish spent at 37.5 °C | slight potentiation of preference for the 28.5 °C side | – | –
2 | CCN1CCCC1CNC(=O)c1cc(S(N)(=O)=O)ccc1OC (centres unmarked) [sulpiride] | had no effect | had no effect | – | had no effect | had no effect | had no effect | had no effect | had no effect | – | –
3 | CN1CCc2cc(Cl)c(O)cc2[C@@H](c2ccccc2)C1 [SCH23390] | – | – | – | – | – | – | – | – | ≥ 5 µM | 15 µM
4 | C=CCN1CC[C@]23c4c5ccc(O)c4O[C@H]2C(=O)CC[C@@]3(O)[C@H]1C5 [Naloxone, naloxone] | did not reverse AS1-induced attraction towards AITC | did not affect AITC avoidance | – | significantly preferred the dark, regardless of whether 1 μM naloxone was applied | significantly chose the light side of the arena | – | significantly chose the 37.5 °C side | significantly chose the 28.5 °C side of the arena | – | –
5 | sumanirole maleate | did seem to attenuate AS1-mediated attraction to AITC, but only at higher concentrations | had little effect alone in the chemical aversion assay | – | had no effect | had no effect | – | had no effect | had no effect | – | –
